This is an account of results in paper PMC10458893, “Design of Protegrin-1 Analogs with Improved Antibacterial Selectivity” (Pharmaceutics, 2023).

The structures appear in SMILES notation. Values after ≈ are worked out from the molar mass of the structure shown. Positions of bridges follow the written chain, without caps; N, C: chain ends. Residues, ends and D or L forms follow the SMILES beside them. Some results are limits rather than exact numbers.

In one data set the test system is E. coli ATCC 25922. Format: cell-based. The settings on record: ATCC 25922, 24 h. On the procedure: (§1) The antimicrobial activity of the peptides was determined using two-fold serial dilutions in sterile 96-well flat-bottom polystyrene microplates (Eppendorf, Hamburg, Germany) (Cat. No. 0030730011), as previously described. The following strains of bacteria were used: E. coli ATCC 25922, E. coli ML35p (ATCC collection), E. coli BW 25113 (Keio collection), Pseudomonas aeruginosa PAO1 (ATCC collection), P. aeruginosa ATCC 27853, Klebsiella pneumoniae ATCC 700603, Staphylococcus aureus 209P (ATCC collection), S. aureus ATCC 29213, and Micrococcus luteus B-1314 (VKM collection). Acinetobacter baumannii (strain XDR CI 2675) was provided by the I.M. Sechenov First Moscow State Medical University hospital. After a 24 h incubation period, the metabolic activity of the bacteria was assessed by adding 20 µL of a redox indicator, resazurin (Sigma-Aldrich, St. Louis, MO, USA), at a concentration of 0.1 mg/mL, to the wells. The plate was then incubated for a further two hours. The minimum inhibitory concentration (MIC) was determined as the lowest concentration of the peptide at which no color change in the resazurin indicator was observed. The results were presented as median values, which were determined based on at least three independent experiments carried out in triplicate.

In the next data set the test system is P. aeruginosa ATCC 27853. Format: cell-based, Pseudomonas aeruginosa. The settings on record: ATCC 27853, 24 h. How it is done: as §1
A further data set concerns P. aeruginosa PAO1. Format: cell-based, Pseudomonas aeruginosa. The note with it: PAO1, 24 h. How it is done:
as §1

In data set [1] the test system is K. pneumoniae ATCC 700603. Format: cell-based, Klebsiella pneumoniae. The note with it: ATCC 700603, 24 h. On the procedure:
as §1

The next data set deals with S. aureus 209P. Format: cell-based, Staphylococcus aureus. The note with it: 24 h. On the procedure: as §1
The subject of another data set is S. aureus ATCC 29213. Format: cell-based, Staphylococcus aureus. The settings on record: ATCC 29213, 24 h. On the procedure: as §1
A further data set relates to M. luteus B-1314. Format: cell-based, Micrococcus luteus. The note with it: B-1314, 24 h. How it is done: as §1
For data set [2], the system named is freshly isolated human erythrocytes (hRBCs). Kind of data set: Hemolysis assay (hemoglobin release). Format: cell-based. The settings on record: red cells of human, 64. An excerpt:
To assess the hemolytic activity of the compounds, freshly isolated human erythrocytes (hRBCs) were used according to the methodology described in a previous study. Melittin was used as a positive peptide control that induces significant hemolysis. Isotonic phosphate buffer (PBS) served as a negative control, while 0.1% Triton X-100 solution was used as a control for complete hemolysis.

The test system of data set [3] is human keratinocyte cell line (HaCaT). The data set can be described thus: Cytotoxicity MTT assay. Format: cell-based. The note with it: 18 h, 128. How it is done: In order to evaluate the cytotoxicity of the peptides against a human keratinocyte cell line (HaCaT, Cat. No. 300493) (Cell Lines Service, Köln, Germany), the colorimetric 3-(4,5-dimethylthiazol-2-yl)-2,5-diphenyltetrazolium bromide (MTT) dye reduction assay was performed, as described in a previous publication. Wells containing no peptide were used as a 100% survival control. Each peptide was tested in two separate experiments to ensure the reliability of the results.
Background: Tetrazolium dyes change colour on reduction, which living cells bring about.

The subject of data set [4] is Acinetobacter baumannii (strain XDR CI 2675). Format: cell-based. The note with it: strain XDR CI 2675, 24 h. How it is done: as §1
A further data set has as its system E. coli BW 25113. Format: cell-based. The note with it: two-fold serial dilutions, 24 h incubation, resazurin read-out; median of at least three independent experiments in triplicate. How it is done: as §1
Background: Resazurin is reduced to fluorescent resorufin, in cell work by metabolically active cells.

The next data set has as its system E. coli ML35p. Format: cell-based. The settings on record: ML35p, 24 h. On the procedure: as §1

For `CC(C)C[C@H](NC(=O)CNC(=O)CNC(=O)[C@@H](N)CCCNC(=N)N)C(=O)N[C@H]1CSSC[C@@H](C(=O)N[C@H](C(=O)NCC(=O)N[C@@H](CCCNC(=N)N)C(N)=O)C(C)C)NC(=O)[C@H](C(C)C)NC(=O)[C@@H]2CSSC[C@H](NC(=O)[C@H](Cc3ccc(O)cc3)NC1=O)C(=O)N[C@@H](CCCNC(=N)N)C(=O)NCC(=O)N[C@@H](CCCNC(=N)N)C(=O)N[C@@H](Cc1ccccc1)C(=O)N2` [Iseganan, reference compound] (H-RGGLCYCRGRFCVCVGR-NH2; disulfide 5-14, 7-12), the “MIC, E. coli ATCC 25922” value against E. coli ATCC 25922 came to 0.5 µM (≈ 0.95 µg/mL). The “MIC, P. aeruginosa ATCC 27853” value with P. aeruginosa ATCC 27853 came to 4 µM (≈ 7.6 µg/mL). For the same compound, the “MIC, P. aeruginosa PAO1” value against P. aeruginosa PAO1 amounted to 8 µM (≈ 15.2 µg/mL). Moreover, the “MIC, K. pneumoniae ATCC 700603” value in data set [1] was 4 µM (≈ 7.6 µg/mL). Moreover, the “MIC, S. aureus 209P” value in the data set on S. aureus 209P was found to be 2 µM (≈ 3.8 µg/mL). Besides, the “MIC, S. aureus ATCC 29213” value in the data set with S. aureus ATCC 29213 came out at 4 µM (≈ 7.6 µg/mL). Moreover, the “MIC, M. luteus B-1314” value in the data set with M. luteus B-1314 came to 0.5 µM (≈ 0.95 µg/mL). Also, the “Hemolytic activity, % (64 μM)” value in data set [2] is given as 99.6 (±0.54) %. Moreover, in data set [3], the “Cell Viability, % (128 μM)” value is recorded as 19.5 (±7.18) %.

With `CC(C)[C@@H]1NC(=O)[C@@H]2CSSC[C@H](NC(=O)[C@H](Cc3ccc(O)cc3)NC(=O)[C@@H](NC(=O)[C@H](C)NC(=O)[C@H](CCCNC(=N)N)NC(=O)CNC(=O)CNC(=O)[C@@H](N)CCCNC(=N)N)CSSC[C@@H](C(=O)N[C@@H](C)C(=O)NCC(=O)N[C@@H](CCCNC(=N)N)C(=O)O)NC1=O)C(=O)N[C@@H](CCCNC(=N)N)C(=O)N[C@@H](CCCNC(=N)N)C(=O)N[C@@H](CCCNC(=N)N)C(=O)N[C@@H](Cc1ccccc1)C(=O)N2` [[L5A,V16A]] (H-RGGRACYCRRRFCVCAGR-OH; disulfide 6-15, 8-13; N-terminus and C-terminus assumed), in [4], the “MIC, A. baumannii” value is 0.25 µM (≈ 0.522 µg/mL). In addition, the “MIC, E. coli ATCC 25922” value with E. coli ATCC 25922 worked out at 0.5 µM (≈ 1.04 µg/mL). For the same compound, the “MIC, E. coli BW 25113” value in the data set on E. coli BW 25113 was determined as 0.5 µM (≈ 1.04 µg/mL). Further, the “MIC, E. coli ML35p” value against E. coli ML35p was determined as 0.5 µM (≈ 1.04 µg/mL). Further, the “MIC, P. aeruginosa ATCC 27853” value against P. aeruginosa ATCC 27853 was 1 µM (≈ 2.09 µg/mL). Also, in the data set with P. aeruginosa PAO1, the “MIC, P. aeruginosa PAO1” value was 1 µM (≈ 2.09 µg/mL). Also, the “MIC, K. pneumoniae ATCC 700603” value in data set [1] came out at 8 µM (≈ 16.7 µg/mL). In the data set on S. aureus 209P, the “MIC, S. aureus 209P” value worked out at 4 µM (≈ 8.35 µg/mL). For the same compound, the “MIC, S. aureus ATCC 29213” value in the data set with S. aureus ATCC 29213 is >32 µM. Besides, the “MIC, M. luteus B-1314” value against M. luteus B-1314 was 4 µM (≈ 8.35 µg/mL). Moreover, the “Hemolytic activity, % (64 μM)” value in data set [2] is listed as 3.6 (±1.72) %. For the same compound, in data set [3], the “Cell Viability, % (128 μM)” value is reported as 17.0 (± 2.18) %.

In the case of `CC(C)C[C@H](NC(=O)[C@H](CCCNC(=N)N)NC(=O)CNC(=O)CNC(=O)[C@@H](N)CCCNC(=N)N)C(=O)N[C@H]1CSSC[C@@H](C(=O)N[C@@H](CCCNC(=N)N)C(=O)NCC(=O)N[C@@H](CCCNC(=N)N)C(=O)O)NC(=O)[C@H](C(C)C)NC(=O)[C@@H]2CSSC[C@H](NC(=O)[C@H]([C@@H](C)O)NC1=O)C(=O)N[C@@H](CCCNC(=N)N)C(=O)N[C@@H](CCCNC(=N)N)C(=O)N[C@@H](CCCNC(=N)N)C(=O)N[C@@H](Cc1ccccc1)C(=O)N2` [[Y7T,V16R]] (H-RGGRLCTCRRRFCVCRGR-OH; disulfide 6-15, 8-13; N-terminus and C-terminus assumed), the “MIC, A. baumannii” value in data set [4] was determined as 4 µM (≈ 8.61 µg/mL). Further, the “MIC, E. coli ATCC 25922” value in the data set with E. coli ATCC 25922 stood at 8 µM (≈ 17.2 µg/mL). Further, the “MIC, E. coli BW 25113” value in the data set with E. coli BW 25113 came to 8 µM (≈ 17.2 µg/mL). Further, the “MIC, E. coli ML35p” value against E. coli ML35p was determined as 4 µM (≈ 8.61 µg/mL). Besides, in the data set with P. aeruginosa ATCC 27853, the “MIC, P. aeruginosa ATCC 27853” value was >32 µM. In the data set on P. aeruginosa PAO1, the “MIC, P. aeruginosa PAO1” value was >32 µM. For the same compound, the “MIC, K. pneumoniae ATCC 700603” value in data set [1] was >32 µM. Also, the “MIC, S. aureus 209P” value in the data set on S. aureus 209P is >32 µM. Besides, the “MIC, S. aureus ATCC 29213” value against S. aureus ATCC 29213 was >32 µM. In addition, the “MIC, M. luteus B-1314” value with M. luteus B-1314 amounted to 4 µM (≈ 8.61 µg/mL). The “Hemolytic activity, % (64 μM)” value in data set [2] was 1.4 (±0.66) %. Besides, the “Cell Viability, % (128 μM)” value in data set [3] is recorded as 72.8 (± 5.46) %.
